Test results: the supplement of paper PMC10307832

Tests used:
Assay in all cases: relative viability (nuclei count vs DMSO), 5 days (fraction); higher = more cells survive
AZD5582 + Palbociclib = compound: C[C@@H](C(=O)N[C@@H](C1CCCCC1)C(=O)N2CCC[C@H]2C(=O)N[C@@H]3[C@@H](CC4=CC=CC=C34)OCC#CC#CCO[C@@H]5CC6=CC=CC=C6[C@@H]5NC(=O)[C@@H]7CCCN7C(=O)[C@H](C8CCCCC8)NC(=O)[C@H](C)NC)NC [AZD5582] + CC(=O)c1c(C)c2cnc(Nc3ccc(N4CCNCC4)cn3)nc2n(C2CCCC2)c1=O [Palbociclib] (partner 0.5 µM)
Outline: (§1)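 Lung cancer cell lines were pin-tool dosed in 1536-well plates on the day after seeding, with either a lone drug or a fixed anchor-drug dose plus five library-drug doses (not always all listed) in √10 steps. Nuclei were counted on 4× images after 5 days. Relative viability is the ratio of treated-well to vehicle-well nuclei counts, with each value a median of duplicate plates.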

AZD5582 + AZD7762 = compound: C[C@@H](C(=O)N[C@@H](C1CCCCC1)C(=O)N2CCC[C@H]2C(=O)N[C@@H]3[C@@H](CC4=CC=CC=C34)OCC#CC#CCO[C@@H]5CC6=CC=CC=C6[C@@H]5NC(=O)[C@@H]7CCCN7C(=O)[C@H](C8CCCCC8)NC(=O)[C@H](C)NC)NC [AZD5582] + NC(=O)Nc1cc(-c2cccc(F)c2)sc1C(=O)N[C@H]1CCCNC1 [AZD7762] (partner 0.2 µM)
Outline: as §1

[1] = compound: Cn1nnc2c(C(N)=O)ncn2c1=O [Temozolomide] + Nc1ncn([C@H]2C[C@H](O)[C@@H](CO)O2)c(=O)n1 [Decitabine] (partner 2 µM)
Outline: as §1

[2] = compound: Cn1nnc2c(C(N)=O)ncn2c1=O [Temozolomide] + C[C@@H](Oc1cc(-c2cnn(C3CCNCC3)c2)cnc1N)c1c(Cl)ccc(F)c1Cl [Crizotinib] (partner 1 µM)
Outline: as §1

| Cell Line | relative viability (AZD5582 + Palbociclib; first compound 0.001581 µM) | relative viability (AZD5582 + Palbociclib; first compound 0.005 µM) | relative viability (AZD5582 + Palbociclib; first compound 0.01581 µM) | relative viability (AZD5582 + Palbociclib; first compound 0.05 µM) | relative viability (AZD5582 + AZD7762; first compound 0.001581 µM) | relative viability (AZD5582 + AZD7762; first compound 0.005 µM) | relative viability (AZD5582 + AZD7762; first compound 0.01581 µM) | relative viability (AZD5582 + AZD7762; first compound 0.05 µM) | relative viability ([1]; first compound 0.2 µM) | relative viability ([1]; first compound 0.6325 µM) | relative viability ([1]; first compound 2 µM) | relative viability ([1]; first compound 6.325 µM) | relative viability ([1]; first compound 20 µM) | relative viability ([2]; first compound 0.2 µM) | relative viability ([2]; first compound 0.6325 µM) | relative viability ([2]; first compound 2 µM) | relative viability ([2]; first compound 6.325 µM) | relative viability ([2]; first compound 20 µM) |
| --- | --- | --- | --- | --- | --- | --- | --- | --- | --- | --- | --- | --- | --- | --- | --- | --- | --- | --- |
| NCI-H2085 | 0.504 | 0.509 | 0.459 | 0.599 | 0.987 | 1.02 | 0.855 | 0.948 | 0.63 | 0.599 | 0.587 | 0.589 | 0.471 | 0.746 | 0.904 | 0.651 | 0.866 | 0.685 |
| HOP-62 | 0.297 | 0.46 | 0.453 | 0.379 | 0.29 | 0.395 | 0.722 | 0.508 | 0.214 | 0.247 | 0.226 | 0.19 | 0.188 | 1.12 | 0.991 | 1.05 | 0.801 | 0.965 |
| NCI-H2126 | 0.331 | 0.334 | 0.36 | 0.379 | 0.981 | 0.933 | 0.896 | 0.747 | 0.554 | 0.611 | 0.596 | 0.639 | 0.589 | 1.05 | 0.984 | 0.974 | 1.07 | 1.05 |
| NCI-H661 | 0.403 | 0.44 | 0.464 | 0.429 |  |  |  |  | 0.527 | 0.598 | 0.632 | 0.495 | 0.545 | 0.828 | 0.93 | 0.942 | 0.944 | 1.02 |
| NCI-H1395 | 0.578 | 0.688 |  | 0.76 | 0.346 | 0.376 |  | 0.406 | 0.707 | 0.716 | 0.849 | 0.657 | 0.717 |  |  |  |  |  |
| SW 900 | 0.443 | 0.566 | 0.531 | 0.435 | 0.539 | 0.491 | 0.544 | 0.31 | 0.428 | 0.427 | 0.453 | 0.511 | 0.427 |  |  |  |  |  |
| COR-L23 | 0.238 | 0.329 | 0.269 | 0.305 |  |  |  |  | 0.452 | 0.493 | 0.478 | 0.419 | 0.404 | 0.925 | 0.701 | 0.669 | 0.503 | 0.614 |
| NCI-H1650 | 0.37 | 0.43 | 0.334 | 0.328 |  |  |  |  | 0.45 | 0.422 | 0.515 | 0.457 | 0.532 | 1.08 | 1.12 | 1.05 | 0.9 | 0.799 |
| Calu-6 |  |  |  |  |  |  |  |  |  |  |  |  |  | 0.997 | 0.83 | 0.904 | 0.817 | 0.767 |
| NCI-H596 |  |  |  |  | 1.07 |  | 1.11 | 0.38 | 1.13 | 1.07 | 1.03 | 1.02 | 0.905 | 1.07 | 0.978 | 1.06 | 1.04 | 0.884 |
| NCI-H1563 |  |  |  |  |  |  |  |  |  |  |  |  |  | 0.911 | 0.853 | 0.965 | 0.847 | 0.729 |
| SK-MES-1 | 0.286 | 0.32 | 0.332 | 0.291 |  |  |  |  | 0.417 | 0.391 | 0.362 | 0.335 | 0.368 | 1.14 | 0.969 | 1.03 | 0.947 | 0.997 |
| UMC-11 | 0.345 | 0.324 | 0.394 | 0.339 |  |  |  |  | 0.462 | 0.628 | 0.614 | 0.524 | 0.521 | 0.774 | 0.646 | 0.692 | 0.632 | 0.333 |
| NCI-H1299 |  |  |  |  |  |  |  |  |  |  |  |  |  | 1.02 | 0.934 | 0.988 | 0.989 | 0.975 |
| EBC-1 |  |  |  |  |  |  |  |  |  |  |  |  |  | 0.167 | 0.2 | 0.229 | 0.208 | 0.194 |
| SK-LU-1 | 0.333 | 0.366 | 0.331 | 0.247 |  |  |  |  | 0.683 | 0.671 | 0.575 | 0.458 | 0.477 | 0.978 | 1.06 | 0.92 | 0.518 | 0.463 |
| A549 |  |  |  |  |  |  |  |  | 0.314 | 0.184 | 0.289 | 0.246 | 0.207 | 0.809 | 0.829 | 0.869 | 0.754 | 0.816 |
| NCI-H520 | 0.193 | 0.256 | 0.238 | 0.223 |  |  |  |  | 0.54 | 0.467 | 0.484 | 0.517 | 0.548 | 0.763 | 0.955 | 0.811 | 0.939 | 0.947 |
| NCI-H2023 | 0.35 | 0.469 | 0.359 | 0.4 |  |  |  |  | 0.279 | 0.227 | 0.225 | 0.211 | 0.201 | 0.64 | 0.631 | 0.678 | 0.516 | 0.648 |
| NCI-H1793 | 0.311 | 0.355 | 0.297 | 0.397 | 0.254 | 0.795 | 0.277 | 0.487 |  | 0.54 | 0.624 | 0.36 | 0.424 |  |  |  |  |  |
| COR-L 105 | 0.383 | 0.394 | 0.415 | 0.452 |  |  |  |  | 0.691 | 0.643 | 0.649 | 0.739 | 0.535 | 0.739 | 0.913 | 0.827 | 0.787 | 0.841 |
| NCI-H2009 | 0.24 | 0.225 | 0.184 | 0.203 |  |  |  |  | 0.353 | 0.404 | 0.417 | 0.355 | 0.397 | 1.07 | 1.07 | 1.06 | 1.03 | 1.07 |
| NCI-H522 | 0.963 | 1.02 | 1.11 | 0.912 | 0.982 | 0.887 | 0.885 | 0.645 | 0.591 | 0.623 | 0.747 | 0.608 | 0.59 |  |  |  |  |  |
| NCI-H2228 | 0.674 | 0.706 | 0.84 | 0.127 |  |  |  |  |  |  |  |  |  | 0.529 | 0.536 | 0.466 | 0.399 | 0.369 |
